These results are taken from US8450525B2, “Histone deacetylase inhibitors” (Orchid Chemicals & Pharmaceuticals Limited, priority 2007, dated 2013).

Assay [1] deals with T1, HDAC (Mouse Liver Extract).
T1 construct: Mouse liver enzyme (10 mg/ml) was diluted 1:6 with HDAC buffer
Description: HDAC inhibition assay using Boc-Lys(Ac)-AMC substrate, mouse liver enzyme.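 For IC50: IC50 for inhibition of HDAC activity in mouse liver extract.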 Type of assay: biochemical.

The test system of a further assay is U251 (glioma) cells. Description: Anti-cancer screen, growth inhibition (MTT). Type of assay: cell-based. Particulars: Homo sapiens, U-251 cells, 48 hours of incubation. In a few lines:
(§1)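 MTT added for 3 h at 37° C, formazan dissolved in DMSO and A570 read. A T0 plate was measured at compound addition.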

A further assay has as its system HCT 116 (colon) cells. Description: Anti-cancer screen, growth inhibition (MTT). It counts as cell-based. To be noted: Homo sapiens, HCT-116 cells, 48 hours of incubation. In a few lines: as §1
The next assay has as its system NCI-H460 (lung) cells. Description: Anti-cancer screen, growth inhibition (MTT). It counts as cell-based. To be noted: Homo sapiens, 48 hours of incubation. In outline:
as §1

Bounds are passed on as bounds.

On to `O=C(/C=C/c1ccc(/C=C(/C(=O)N2CCOCC2)c2ccc(F)cc2)cc1)NCc1ccc(C(=O)NO)cc1` [Example 96, 4-(((1E)-3-(4-(3-(Morpholino)-2-(4-fluorophenyl)-3-oxoprop-1-en-1-yl)phenyl)acrylamido)methyl)-N-hydroxybenzamide], for which the “HDAC Inhibition % (1 μM)” value in assay [1] is reported as 100.0%. In addition, the “HDAC Inhibition % (10 μM)” value in assay [1] came to 100.0%. Moreover, the 50% growth inhibitory concentration (GI50) (as a rule, the concentration at which growth is held to half of that of the control) is 5 µM in the assay on U251 (glioma) cells, 85 µM in the assay on HCT 116 (colon) cells and over 100 µM in the assay on NCI-H460 (lung) cells.

`COc1cccc(/C(=C\c2ccc(/C=C/C(=O)NCc3ccc(C(=O)NO)cc3)cc2)C(=O)NC2CC2)c1` [Example 97, 4-(((1E)-3-(4-(3-(Cyclopropylamino)-2-(3-methoxyphenyl)-3-oxoprop-1-en-1-yl)phenyl)acrylamido)methyl)-N-hydroxybenzamide]: in assay [1], it took 0.0025 µM to reach half-maximal inhibition (IC50), the “HDAC Inhibition % (1 μM)” value amounted to 100.0% and the “HDAC Inhibition % (10 μM)” value is listed as 100.0%. Besides, the GI50 in the assay on U251 (glioma) cells amounted to 2.3 µM. In the assay on HCT 116 (colon) cells, this molecule came in with a GI50 of 6.5 µM. The molecule further had a GI50 in the assay on NCI-H460 (lung) cells of 7.5 µM.

With `O=C(/C=C/c1ccc(/C=C(/C(=O)N2CCOCC2)c2ccccc2F)cc1)NCc1ccc(C(=O)NO)cc1` [Example 98, 4-(((1E)-3-(4-(3-(Morpholino)-2-(2-fluorophenyl)-3-oxoprop-1-en-1-yl)phenyl)acrylamido)methyl)-N-hydroxybenzamide], in assay [1], the “HDAC Inhibition % (1 μM)” value turned out to be 91.5%. Besides, in assay [1], the “HDAC Inhibition % (10 μM)” value is listed as 98.8%. Moreover, the GI50 in the assay on U251 (glioma) cells was 18 µM; with HCT 116 (colon) cells it was 9 µM; in the assay on NCI-H460 (lung) cells, over 100 µM.

As to `Cc1ccc(/C(=C\c2ccc(C(=O)NO)cc2)C(=O)NC2CC2)cc1` [Example 99, 4-(3-(Cyclopropylamino)-2-(4-methylphenyl)-3-oxoprop-1-en-1-yl)-N-hydroxy benzamide], the “HDAC Inhibition % (1 μM)” value in assay [1] was found to be 40.2%. In addition, the “HDAC Inhibition % (10 μM)” value in assay [1] stood at 59.0%. Also, the results for the GI50 in the assay with U251 (glioma) cells, in the assay with HCT 116 (colon) cells and in the assay with NCI-H460 (lung) cells were 12 µM, 32 µM and 66 µM, respectively.

Take `O=C(NC1CC1)/C(=C/c1ccc(C(=O)NO)cc1)c1ccccc1` [Example 102, 4-(3-(Cyclopropylamino)-2-phenyl-3-oxoprop-1-en-1-yl)-N-hydroxybenzamide]: the “HDAC Inhibition % (1 μM)” value in assay [1] was determined as 50.1%. For the same molecule, in assay [1], the “HDAC Inhibition % (10 μM)” value is on record as 80.4%. The GI50 in the assay on U251 (glioma) cells is 19 µM; with HCT 116 (colon) cells, 17 µM; with NCI-H460 (lung) cells, 48 µM.

Regarding `Cc1ccc(/C(=C\c2ccc(C(=O)Nc3ccccc3N)cc2)C(=O)NC2CC2)cc1` [Example 104, N-(2-Aminophenyl)-4-(3-(cyclopropylamino)-2-(4-methylphenyl)-3-oxoprop-1-en-1-yl)benzamide], the “HDAC Inhibition % (1 μM)” value in assay [1] is on record as 44.7%. For the same molecule, the “HDAC Inhibition % (10 μM)” value in assay [1] was determined as 58.4%. Also, the figures for the concentration for 50% growth inhibition (GI50) in the assay with U251 (glioma) cells, in the assay with HCT 116 (colon) cells and with NCI-H460 (lung) cells were 7 µM, 6 µM and 5 µM, respectively.

`Nc1ccccc1NC(=O)c1ccc(C=C(C(=O)NC2CC2)c2ccc(C(F)(F)F)cc2)cc1` [Example 106, N-(2-Aminophenyl)-4-(3-(cyclopropylamino)-2-(4-trifluoromethylphenyl)-3-oxoprop-1-en-1-yl)benzamide]: in assay [1], the “HDAC Inhibition % (1 μM)” value was 35.8%. The “HDAC Inhibition % (10 μM)” value in assay [1] was 42.9%. The GI50 in the assay with U251 (glioma) cells was found to be 15 µM; in the assay on HCT 116 (colon) cells, 4 µM; with NCI-H460 (lung) cells, 20 µM.

On to `COc1cccc(/C(=C\c2ccc(C(=O)Nc3ccccc3N)cc2)C(=O)NC2CC2)c1` [Example 108, N-(2-Aminophenyl)-4-(3-(cyclopropylamino)-2-(3-methoxyphenyl)-3-oxoprop-1-en-1-yl)benzamide], for which, in assay [1], the “HDAC Inhibition % (1 μM)” value is listed as 39.1%. For the same molecule, the “HDAC Inhibition % (10 μM)” value in assay [1] worked out at 61.7%. For the same molecule, the figures for the GI50 with U251 (glioma) cells, in the assay with HCT 116 (colon) cells and with NCI-H460 (lung) cells were 82 µM, over 100 µM and 80 µM, respectively.
